Laboratory results: PubChem BioAssay (NCI)
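Results reflect a 48-hour exposure of cells in 96-well plates to compound at five concentrations. GI50 marks 50% less growth. TGI marks complete inhibition of growth.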

Columns and labels:
Assay in all cases: NCI anticancer screen, dose series, 48 h
OVCAR-5 ovarian = system: OVCAR-5 ovarian
HCT-15 colon = system: HCT-15 colon
K-562 leukemia = system: K-562 leukemia
CCRF-CEM leukemia = system: CCRF-CEM leukemia
SW-620 colon = system: SW-620 colon
HCC-2998 colon = system: HCC-2998 colon
SK-MEL-28 melanoma = system: SK-MEL-28 melanoma
UO-31 renal = system: UO-31 renal
OVCAR-4 ovarian = system: OVCAR-4 ovarian
COLO 205 colon = system: COLO 205 colon

| SMILES | GI50 (OVCAR-5 ovarian) [µM] | TGI (OVCAR-5 ovarian) [µM] | GI50 (HCT-15 colon) [µM] | TGI (HCT-15 colon) [µM] | GI50 (K-562 leukemia) [µM] | TGI (K-562 leukemia) [µM] | GI50 (CCRF-CEM leukemia) [µM] | TGI (CCRF-CEM leukemia) [µM] | GI50 (SW-620 colon) [µM] | TGI (SW-620 colon) [µM] | GI50 (HCC-2998 colon) [µM] | TGI (HCC-2998 colon) [µM] | GI50 (SK-MEL-28 melanoma) [µM] | TGI (SK-MEL-28 melanoma) [µM] | GI50 (UO-31 renal) [µM] | TGI (UO-31 renal) [µM] | GI50 (OVCAR-4 ovarian) [µM] | TGI (OVCAR-4 ovarian) [µM] | GI50 (COLO 205 colon) [µM] | TGI (COLO 205 colon) [µM] |
| --- | --- | --- | --- | --- | --- | --- | --- | --- | --- | --- | --- | --- | --- | --- | --- | --- | --- | --- | --- | --- |
| CN(Cc1cc(Br)cc(Br)c1O)Cc1cc(Br)cc(Br)c1O | 6.13 | 21.9 | 0.558 | 16.9 | 0.603 | 20 | 1.31 | > 100 | 2.33 | 16.9 | 3.5 | 17 | 10.9 | 24.6 | 1.08 | 14.6 | 1.79 | 18.9 | 3.72 | 15.2 |
| NC(=O)c1ccc(NN=O)nc1 | – | > 100 | – | > 100 | – | > 100 | – | > 100 | – | > 100 | – | > 100 | – | > 100 | – | > 100 | – | > 100 | – | > 100 |
| C[C@H](Nc1ncnc2nc[nH]c12)c1cc2ccc(F)cc2nc1-c1ccccn1 | > 77.2 | > 100 | > 100 | > 100 | > 100 | > 100 | > 70.2 | > 100 | > 100 | > 100 | > 100 | > 100 | > 100 | > 100 | 9.3 | > 100 | > 100 | > 100 | > 100 | > 100 |
| CCCCCCCCCCCCCC1=NCCN1CCO | 5.47 | 18.3 | 1.92 | 4.77 | 3.04 | > 100 | 10.5 | > 100 | 2.25 | 5.22 | 4.03 | 16.5 | 1.99 | 4.02 | 2.46 | 6.16 | 7.23 | 39.8 | 2.11 | 3.97 |
| CCOC(=O)c1c(C)n2c(=O)cc(C)c3c(O)c(O)cc1c32 | 43.8 | > 100 | 2.48 | 51.1 | 3.46 | 33.3 | 0.746 | 6.05 | 4.3 | > 100 | 40.8 | > 100 | 27.2 | > 100 | 5.7 | > 100 | 4.53 | > 100 | 13.1 | > 100 |
| O=[N+]([O-])c1ccc(Sc2ncnc3nc[nH]c23)c2nonc12 | 10.3 | 22.6 | 10.5 | 36.1 | 0.436 | 2.72 | 1.78 | 5.14 | 1.63 | 3.44 | 4.6 | 27.6 | 5.79 | 18.5 | 1.6 | 2.95 | 0.811 | 16.9 | 2.17 | 4.67 |
| CCN(CC)CCOc1ccccc1/C=C/c1noc2ccccc12 | – | 25.1 | – | 22.4 | – | > 100 | – | 81.6 | – | 23 | – | 18 | – | 21.1 | – | 19.3 | – | 50.7 | – | 24.1 |
